{"source": "patent US7605182B2", "about": "“Compounds that selectively bind to membranes of apoptotic cells” (Aposense Ltd., priority 2003, dated 2009)", "test_system": "apoptotic Jurkat cells", "test": "Selective binding of NST-892 to apoptotic Jurkat cells; flow-cytometric (FACS) analysis", "type": "cell-based, human", "conditions": "500 μM compound, 20 minutes", "protocol": "Cultured Jurkat cells (human […] T cell leukemia cells) were grown in suspension in RPMI medium (Beit-Haemek, Israel), supplemented with 10% of fetal calf serum (FCS), 4 mM of L-glutamine, 1 mM of sodium pyruvate, 1 mM CaCl2 and antibiotics (100 units/ml penicilin; 100 μg/ml streptomycin and 12.5 units/ml of nystatin) Prior to induction of apoptosis, medium was replaced with HBS buffer (10 mM HEPES; 140 mM NaCl, 1 mM CaCl). Apoptosis was then triggered by treatment with anti-Fas Ab (0.1 μg/ml; 2.5 hrs). Both control cells and apoptotic cells were then incubated for 20 minutes with 500 μM of NST-892 dissolved in 0.1 m NaPpi pH=7.4. Subsequently, cells were co-stained with propidium iodide (PI), a marker of membrane disintegration during late phases of cell death, and the selective binding of the NST-892 compounds to control and apoptotic cells was determined by flow cytometric (FACS) analysis using Becton-Dickinson cell sorter and CellQuest software (excitation was at 356 nm and emission was measured at 530 nm).", "data": [{"smiles": "CN(C)c1cccc2c(S(=O)(=O)NC(C(=O)O)c3cccc4c(C(N)C(=O)O)cccc34)cccc12", "note": "(centres unmarked) [NST-892, Mono Dansyl Naphthalene Diglycine]", "values": [{"measurement": "percent of identified early apoptotic events within the population (cells binding NST-892, excluding PI)", "setting": "apoptotic Jurkat cells (anti-Fas Ab 0.1 μg/ml; 2.5 hrs)", "result": 68.9, "unit": "%"}, {"measurement": "percent of identified early apoptotic events within the population (cells binding NST-892, excluding PI)", "setting": "non-treated control Jurkat cells", "result": 3.3, "unit": "%"}]}]}
